pIC50: −log10 of the molar value.
Molecular target: human c-MER catalytic domain (Homo sapiens (Human), UniProt Q12866)
Assay: LanthaScreen TR-FRET kinase assay, c-MER
Conditions: read-out: Mer TK inhibition (IC50); Biochemical IC50, TR-FRET, 10 uM ATP

Chain of human c-MER catalytic domain (Q12866 587-858): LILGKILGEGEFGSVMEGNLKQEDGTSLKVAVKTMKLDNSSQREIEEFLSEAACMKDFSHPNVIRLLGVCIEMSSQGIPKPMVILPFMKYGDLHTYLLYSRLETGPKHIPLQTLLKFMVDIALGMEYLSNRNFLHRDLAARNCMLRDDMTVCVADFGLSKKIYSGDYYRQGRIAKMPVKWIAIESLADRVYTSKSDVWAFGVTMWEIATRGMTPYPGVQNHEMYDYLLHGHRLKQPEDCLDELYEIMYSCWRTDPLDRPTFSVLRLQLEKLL

SMILES: COc1cccc(COC[C@@H](C)NC(=O)c2cc(-c3cnn(C)c3)cnc2N)c1 [Example 106, (R)-2-amino-N-(1-((3-methoxybenzyl)oxy)propan-2-yl)-5-(1-methyl-1H-pyrazol-4-yl)nicotinamide]
- pIC50: < 6.00

SMILES: CC(c1ccc(-c2ccc(CO[C@H]3CCC[C@@H]3NC(=O)c3cc(Cl)cnc3N)cc2)cc1)N1CCN(C)CC1 (stereo partly drawn) [Example 231]
- pIC50: > 8.00

SMILES: Cc1ccc(CO[C@H]2CCC[C@@H]2NC(=O)c2cc(-c3ccc(C(=O)N4CCC(N5CCCC5)CC4)c(C)c3)cnc2N)cc1C [Example 330]
- pIC50: > 8.00

SMILES: Cn1cc(-c2cnc(N)c(C(=O)N[C@H]3CCC[C@@H]3OCc3ccccc3)c2)c(CNCCO)n1 [Example 262, 2-amino-N-((1S,2S)-2-(benzyloxy)cyclopentyl)-5-(3-(((2-hydroxyethyl)amino)methyl)-1-methyl-1H-pyrazol-4-yl)nicotinamide]
- pIC50: < 6.00

SMILES: Cn1cc(-c2cnc(N)c(C(=O)N[C@H](COCc3ccccc3)Cc3ccccc3)c2)cn1 [Example 117, (S)-2-amino-N-(1-(benzyloxy)-3-phenylpropan-2-yl)-5-(1-methyl-1H-pyrazol-4-yl)nicotinamide]
- pIC50: < 6.00

SMILES: Cn1cc(-c2cnc(N)c(C(=O)N[C@H]3CCC[C@@H]3OCc3cccc(C(=O)NCCO)c3)c2)cn1 [Example 56, 2-amino-N-((1S,2S)-2-((3-((2-hydroxyethyl)carbamoyl)benzyl)-oxy)cyclopentyl)-5-(1-methyl-1H-pyrazol-4-yl)nicotinamide]
- pIC50: < 6.00

SMILES: COC(=O)c1cccc(CO[C@H]2CCC[C@@H]2NC(=O)c2cc(-c3cnn(C)c3)cnc2N)c1 [Example 42, methyl 3-((((1S,2S)-2-(2-amino-5-(1-methyl-1H-pyrazol-4-yl)nicotinamido)cyclopentyl)oxy)methyl)benzoate]
- pIC50: < 6.00

SMILES: Cn1cc(-c2cnc(N)c(C(=O)N[C@H]3CCC[C@@H]3OCc3cccc([N+](=O)[O-])c3)c2)cn1 [Example 30, 2-amino-5-(1-methyl-1H-pyrazol-4-yl)-N-((1S,2S)-2-((3-nitrobenzyl)oxy)cyclopentyl)nicotinamide]
- pIC50: < 6.00

SMILES: Cn1cc(-c2cnc(N)c(C(=O)N[C@H]3CCC[C@@H]3OCc3cccc(-c4cccc(O)c4)c3)c2)cn1 [Example 169, 2-amino-N-((1S,2S)-2-((3′-hydroxy-[1,1′-biphenyl]-3-yl)-methoxy)cyclopentyl)-5-(1-methyl-1H-pyrazol-4-yl)nicotinamide]
- pIC50: < 6.00

SMILES: Cn1cc(-c2cnc(N)c(C(=O)N[C@H]3CCC[C@@H]3OCc3cccc(Br)c3)c2)cn1 [Example 51, 2-amino-N-((1S,2S)-2-((3-bromobenzyl)oxy)cyclopentyl)-5-(1-methyl-1H-pyrazol-4-yl)nicotinamide]
- pIC50: < 6.00

SMILES: CN1CCN(Cc2ccc(-c3ccc(CO[C@H]4CCCC[C@@H]4NC(=O)c4cc(-c5cnn(C)c5)cnc4N)cc3)cc2)CC1 [Example 166, 2-amino-5-(1-methyl-1H-pyrazol-4-yl)-N-((1S,2S)-2-((4′-((4-methylpiperazin-1-yl)methyl)-[1,1′-biphenyl]-4-yl)methoxy)cyclohexyl)nicotinamide]
- pIC50: < 6.00

SMILES: Cn1cc(-c2cnc(N)c(C(=O)N[C@H]3CCC[C@@H]3OCc3ccccc3-c3ccccc3)c2)cn1 (relative stereo) [Example 66, N-(trans-2-([1,1′-biphenyl]-2-ylmethoxy)cyclopentyl)-2-amino-5-(1-methyl-1H-pyrazol-4-yl)nicotinamide]
- pIC50: < 6.00

SMILES: CC(=O)N[C@@H](C)C(=O)Nc1cccc(CO[C@H]2CCC[C@@H]2NC(=O)c2cc(-c3cnn(C)c3)cnc2N)c1 [Example 59, N-((1S,2S)-2-((3-((S)-2-acetamidopropanamido)benzyl)oxy)-cyclopentyl)-2-amino-5-(1-methyl-1H-pyrazol-4-yl)nicotinamide]
- pIC50: < 6.00

SMILES: C[C@H](COCC1CCC1)NC(=O)c1cc(-c2cnn(C)c2)cnc1N [Example 119, (R)-2-amino-N-(1-(cyclobutylmethoxy)propan-2-yl)-5-(1-methyl-1H-pyrazol-4-yl)nicotinamide]
- pIC50: < 6.00

SMILES: CN1CCN(Cc2ccc(-c3ccc(CO[C@H]4CCC[C@@H]4NC(=O)c4cc(C5=CCCCC5)cnc4N)cc3)cc2)CC1 [Example 382, 2-amino-5-(cyclohex-1-en-1-yl)-N-((1S,2S)-2-((4′-((4-methylpiperazin-1-yl)methyl)-[1,1′-biphenyl]-4-yl)methoxy)cyclopentyl)nicotinamide]
- pIC50: > 8.00

SMILES: Cn1cc(-c2cnc(N)c(C(=O)N[C@H]3CCC[C@@H]3OCc3ccc(-n4nccn4)cc3)c2)cn1 [Example 62, N-((1S,2S)-2-((4-(2H-1,2,3-triazol-2-yl)benzyl)oxy)cyclopentyl)-2-amino-5-(1-methyl-1H-pyrazol-4-yl)nicotinamide]
- pIC50: < 6.00

SMILES: CN(C)CCOc1ccc(-c2ccc(CO[C@H]3CCC[C@@H]3NC(=O)c3cc(-c4cnn(C)c4)cnc3N)cc2)cc1 [Example 245, 2-amino-N-((1S,2S)-2-((4′-(2-(dimethylamino)ethoxy)-[1,1′-biphenyl]-4-yl)methoxy)cyclopentyl)-5-(1-methyl-M-pyrazol-4-yl)nicotinamide]
- pIC50: > 8.00

SMILES: Cn1cc(-c2cnc(N)c(C(=O)N[C@H]3CCC4(OCCO4)[C@@H]3OCc3ccccc3)c2)cn1 [Example 73, 2-amino-N-((6R,7S)-6-(benzyloxy)-1,4-dioxaspiro[4.4]nonan-7-yl)-5-(1-methyl-1H-pyrazol-4-yl)nicotinamide]
- pIC50: < 6.00

SMILES: CCCNC(=O)[C@@H](NC(=O)c1cc(-c2cnn(C)c2)cnc1N)[C@@H](C)OCc1ccccc1 [Example 123, 2-amino-N-((2S,3R)-3-(benzyloxy)-1-oxo-1-(propylamino)butan-2-yl)-5-(1-methyl-1H-pyrazol-4-yl)nicotinamide]
- pIC50: < 6.00

SMILES: COC(=O)[C@@H](NC(=O)c1cc(-c2cnn(C)c2)cnc1N)[C@@H](C)OCc1ccccc1 [Example 121, methyl N-(2-amino-5-(1-methyl-1H-pyrazol-4-yl)nicotinoyl)-O-benzyl-L-threoninate]
- pIC50: < 6.00

SMILES: Cn1cc(-c2cnc(N)c(C(=O)N[C@@H](CO)C3CCCCC3)c2)cn1 [Example 114, (R)-2-amino-N-(1-cyclohexyl-2-hydroxyethyl)-5-(1-methyl-1H-pyrazol-4-yl)nicotinamide]
- pIC50: < 6.00

SMILES: Cn1cc(-c2cnc(N)c(C(=O)N[C@H]3CCC[C@@H]3OCc3ccccc3)c2)c(CN2CCCC(O)C2)n1 (stereo partly drawn) [Example 263, 2-amino-N-((1S,2S)-2-(benzyloxy)cyclopentyl)-5-(3-((3-hydroxypiperidin-1-yl)methyl)-1-methyl-1H-pyrazol-4-yl)nicotinamide]
- pIC50: < 6.00

SMILES: CN(Cc1ccccc1)[C@H]1CCC[C@@H]1NC(=O)c1cc(-c2cnn(C)c2)cnc1N (relative stereo) [Example 76, 2-amino-N-(trans-2-(benzyl(methyl)amino)cyclopentyl)-5-(1-methyl-1H-pyrazol-4-yl)nicotinamide]
- pIC50: < 6.00

SMILES: C[C@H](COCc1ccc(Cl)cc1)NC(=O)c1cc(-c2cnn(C)c2)cnc1N [Example 102, (R)-2-amino-N-(1-((4-chlorobenzyl)oxy)propan-2-yl)-5-(1-methyl-1H-pyrazol-4-yl)nicotinamide]
- pIC50: < 6.00

SMILES: C[C@H](COCc1ccccc1)NC(=O)c1cc(-c2cnn(C)c2)cnc1N [Example 98, (R)-2-amino-N-(1-(benzyloxy)propan-2-yl)-5-(1-methyl-1H-pyrazol-4-yl)nicotinamide]
- pIC50: < 6.00

SMILES: CC[C@H](COCc1ccccc1)NC(=O)c1cc(-c2cnn(C)c2)cnc1N [Example 108, (R)-2-amino-N-(1-(benzyloxy)butan-2-yl)-5-(1-methyl-1H-pyrazol-4-yl)nicotinamide]
- pIC50: < 6.00

SMILES: CC(C)[C@H](COCc1ccccc1)NC(=O)c1cc(-c2cnn(C)c2)cnc1N [Example 110, (R)-2-amino-N-(1-(benzyloxy)-3-methylbutan-2-yl)-5-(1-methyl-1H-pyrazol-4-yl)nicotinamide]
- pIC50: < 6.00

SMILES: Cn1cc(-c2cnc(N)c(C(=O)N[C@H]3CCC[C@@H]3O)c2)cn1 [Example 69, 2-amino-N-((1S,2S)-2-hydroxycyclopentyl)-5-(1-methyl-1H-pyrazol-4-yl)nicotinamide]
- pIC50: < 6.00

SMILES: Cn1cc(-c2cnc(N)c(C(=O)N[C@@H](CO)C(=O)OCc3ccccc3)c2)cn1 [Example 128, benzyl (2-amino-5-(1-methyl-1H-pyrazol-4-yl)nicotinoyl)-L-serinate]
- pIC50: < 6.00

SMILES: CN1CCN(c2ccc(Nc3ccc(C(=O)N[C@H]4CCC[C@@H]4OCc4ccccc4)c(N)n3)cc2)CC1 [Example 458, 2-amino-N-((1S,2S)-2-(benzyloxy)cyclopentyl)-6-((4-(4-methylpiperazin-1-yl)phenyl)amino)nicotinamide]
- pIC50: < 6.00

SMILES: C[C@@H](COCc1ccccc1)NC(=O)c1cc(-c2cnn(C)c2)cnc1N [Example 97, (S)-2-amino-N-(1-(benzyloxy)propan-2-yl)-5-(1-methyl-1H-pyrazol-4-yl)nicotinamide]
- pIC50: < 6.00

SMILES: Cn1cc(-c2cnc(N)c(C(=O)N[C@H]3CCCc4ccccc43)n2)cn1 [Example 131, (S)-3-amino-6-(1-methyl-1H-pyrazol-4-yl)-N-(1,2,3,4-tetrahydronaphthalen-1-yl)pyrazine-2-carboxamide]
- pIC50: < 6.00

SMILES: Cn1cc(-c2cnc(N)c(C(=O)N[C@H]3COC[C@@H]3N3CCOCC3)c2)cn1 (relative stereo) [Example 90, 2-amino-5-(1-methyl-1H-pyrazol-4-yl)-N-(trans-4-morpholinotetrahydrofuran-3-yl)nicotinamide]
- pIC50: < 6.00

SMILES: CC(C)[C@@H](COCc1ccccc1)NC(=O)c1cc(-c2cnn(C)c2)cnc1N [Example 109, (S)-2-amino-N-(1-(benzyloxy)-3-methylbutan-2-yl)-5-(1-methyl-1H-pyrazol-4-yl)nicotinamide]
- pIC50: < 6.00

SMILES: CC(C)C[C@@H](COCc1ccccc1)NC(=O)c1cc(-c2cnn(C)c2)cnc1N [Example 111, (S)-2-amino-N-(1-(benzyloxy)-4-methylpentan-2-yl)-5-(1-methyl-1H-pyrazol-4-yl)nicotinamide]
- pIC50: < 6.00

SMILES: Cn1cc(-c2cnc(N)c(C(=O)N[C@H]3CCC[C@@H]3OCc3cccc(C#N)c3)c2)cn1 [Example 31, 2-amino-N-((1S,2S)-2-((3-cyanobenzyl)oxy)cyclopentyl)-5-(1-methyl-1H-pyrazol-4-yl)nicotinamide]
- pIC50: < 6.00
